Results reported in patent US8575156B2, “Cyclic inhibitors of 11β-hydroxysteroid dehydrogenase 1” (Vitae Pharmaceuticals, Inc., priority 2007, dated 2013).
Read-outs that look alike come from different tables or passages of the source.

Molecular target: 11β-HSD1 (Homo sapiens, UniProt P28845)
Test: biochemical
Settings: for IC50: IC50 Range, Biological Test Example 1, microsomes from CHO cells overexpressing human 11β-HSD1
[1] = read-out: Average % inhibition at 100 nM, Biological Test Example 1, 100 nM

11β-HSD1, sequence (P28845 whole entry): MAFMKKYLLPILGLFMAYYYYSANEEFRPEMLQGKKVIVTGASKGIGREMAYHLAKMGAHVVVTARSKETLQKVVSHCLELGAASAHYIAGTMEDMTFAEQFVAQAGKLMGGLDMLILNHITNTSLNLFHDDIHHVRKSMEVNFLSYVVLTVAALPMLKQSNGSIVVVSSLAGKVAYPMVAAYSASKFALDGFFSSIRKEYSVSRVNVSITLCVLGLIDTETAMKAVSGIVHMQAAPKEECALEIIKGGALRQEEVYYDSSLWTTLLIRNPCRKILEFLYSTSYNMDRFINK

CC(O)C[C@]1(c2ccc(F)cc2)CCN([C@@H](C)c2cccc(Br)c2)C(=O)O1 (stereo partly drawn) [EXAMPLE 355, (6S)-3-((S)-1-(3-bromophenyl)ethyl)-6-(4-fluorophenyl)-6-(2-hydroxypropyl)-1,3-oxazinan-2-one] was tested, and the IC50 was < 100 nM and the inhibition at 0.1 µM (read-out: Average % inhibition at 100 nM) was 95.5%.

For C[C@@H](c1cccc(Br)c1)N1CC[C@](CC(C)(C)O)(c2ccc(F)cc2)OC1=O [EXAMPLE 356, (S)-3-((S)-1-(3-bromophenyl)ethyl)-6-(4-fluorophenyl)-6-(2-hydroxy-2-methylpropyl)-1,3-oxazinan-2-one], the IC50 was < 100 nM and the inhibition at 0.1 µM [1] was 92%.

C[C@@H](c1cccc(Br)c1)N1CC[C@](CCC(C)(C)O)(c2ccc(F)cc2)OC1=O [EXAMPLE 357, (R)-3-((S)-1-(3-bromophenyl)ethyl)-6-(4-fluorophenyl)-6-(3-hydroxy-3-methylbutyl)-1,3-oxazinan-2-one] was tested, and the IC50 was < 100 nM and the inhibition at 0.1 µM [1] was 60.7%.

C[C@@H](c1cccc(Br)c1)N1CC[C@](CCC(N)=O)(c2ccc(F)cc2)OC1=O [EXAMPLE 358, 3-((R)-3-((S)-1-(3-bromophenyl)ethyl)-6-(4-fluorophenyl)-2-oxo-1,3-oxazinan-6-yl)propanamide] was tested, and the IC50 was < 100 nM and the inhibition at 0.1 µM [1] was 84%.

In the case of C[C@@H](c1cccc(Br)c1)N1CC[C@](CCCNS(C)(=O)=O)(c2ccc(F)cc2)OC1=O [EXAMPLE 359, N-(3-((R)-3-((S)-1-(3-bromophenyl)ethyl)-6-(4-fluorophenyl)-2-oxo-1,3-oxazinan-6-yl)propyl)methanesulfonamide], the IC50 is reported as < 100 nM and the inhibition at 0.1 µM [1] is reported as 67.5%.

For C[C@@H](c1cccc(Cl)c1)N1CC[C@](CCCO)(c2ccc(F)cc2)OC1=O [EXAMPLE 360, (R)-3-((S)-1-(3-chlorophenyl)ethyl)-6-(4-fluorophenyl)-6-(3-hydroxypropyl)-1,3-oxazinan-2-one], the IC50 was < 100 nM and the inhibition at 0.1 µM [1] was 97%.

C[C@@H](c1cccc(C#N)c1)N1CC[C@](CCCOC(=O)C(F)(F)F)(c2ccc(F)cc2)OC1=O [EXAMPLE 361, 3-((R)-3-((S)-1-(3-cyanophenyl)ethyl)-6-(4-fluorophenyl)-2-oxo-1,3-oxazinan-6-yl)propyl 2,2,2-trifluoroacetate] was tested, and the IC50 was < 100 nM and the inhibition at 0.1 µM [1] was 67.4%.

With C=CC[C@]1(c2ccc(F)cc2)CCN([C@@H](C)c2cccc(C(=O)OC)c2)C(=O)O1 [EXAMPLE 362, Methyl 3-((S)-1-((R)-6-allyl-6-(4-fluorophenyl)-2-oxo-1,3-oxazinan-3-yl)ethyl)benzoate] the IC50 was < 100 nM and the inhibition at 0.1 µM [1] was 93.4%.

For C[C@@H](c1cccc(CO)c1)N1CC[C@](CCCO)(c2ccc(F)cc2)OC1=O [EXAMPLE 363, (R)-6-(4-fluorophenyl)-3-((S)-1-(3-(hydroxymethyl)phenyl)ethyl)-6-(3-hydroxypropyl)-1,3-oxazinan-2-one], the IC50 was < 100 nM and the inhibition at 0.1 µM [1] was 74.5%.

With C=CC[C@]1(c2ccc(F)cc2)CCN([C@@H](C)c2cccc(C(C)(C)O)c2)C(=O)O1 [EXAMPLE 364, (R)-6-allyl-6-(4-fluorophenyl)-3-((S)-1-(3-(2-hydroxypropan-2-yl)phenyl)ethyl)-1,3-oxazinan-2-one] the IC50 was < 100 nM and the inhibition at 0.1 µM [1] was 66.3%.

With C[C@@H](c1ccc(Br)cc1)N1CC[C@](CCCO)(c2ccc(F)cc2F)OC1=O [EXAMPLE 366, (R)-3-((S)-1-(4-bromophenyl)ethyl)-6-(2,4-difluorophenyl)-6-(3-hydroxypropyl)-1,3-oxazinan-2-one] the IC50 was < 100 nM and the inhibition at 0.1 µM [1] was 95.1%.

Cc1ccc([C@H](C)N2CC[C@](CCCO)(c3ccc(F)cc3)OC2=O)cn1 [EXAMPLE 367, (R)-6-(4-fluorophenyl)-6-(3-hydroxypropyl)-3-((S)-1-(6-methylpyridin-3-yl)ethyl)-1,3-oxazinan-2-one] was tested, and the IC50 was < 100 nM and the inhibition at 0.1 µM [1] was 44.8%.

In the case of CC[C@@H](c1ccc(Br)cc1)N1CC[C@](CCC(N)=O)(c2ccc(F)cc2)OC1=O [EXAMPLE 368, 3-((R)-3-((S)-1-(4-bromophenyl)propyl)-6-(4-fluorophenyl)-2-oxo-1,3-oxazinan-6-yl)propanamide], the IC50 is reported as < 100 nM and the inhibition at 0.1 µM [1] is reported as 96.9%.

In the case of C[C@@H](c1ccc(Br)cc1)N1CC[C@](CCC(C)(C)O)(c2ccc(F)cc2)OC1=O [EXAMPLE 373, (R)-3-((S)-1-(4-bromophenyl)ethyl)-6-(4-fluorophenyl)-6-(3-hydroxy-3-methylbutyl)-1,3-oxazinan-2-one], the IC50 is reported as < 100 nM and the inhibition at 0.1 µM [1] is reported as 89.1%.

With C[C@@H](c1ccc(Br)cc1)N1CC[C@](CCN2CCC2)(c2ccc(F)cc2)OC1=O [EXAMPLE 374, (R)-6-(2-(azetidin-1-yl)ethyl)-3-((S)-1-(4-bromophenyl)ethyl)-6-(4-fluorophenyl)-1,3-oxazinan-2-one] the IC50 was < 100 nM and the inhibition at 0.1 µM [1] was 52.2%.

C[C@@H](c1ccc(Br)cc1)N1CC[C@](CCNCCF)(c2ccc(F)cc2)OC1=O [EXAMPLE 375, (R)-3-((S)-1-(4-bromophenyl)ethyl)-6-(2-(2-fluoroethylamino)ethyl)-6-(4-fluorophenyl)-1,3-oxazinan-2-one] was tested, and the IC50 was < 100 nM and the inhibition at 0.1 µM [1] was 70.9%.

C[C@@H](c1ccc(Br)cc1)N1CC[C@](CCN2CCCC2)(c2ccc(F)cc2)OC1=O [EXAMPLE 376, (R)-3-((S)-1-(4-bromophenyl)ethyl)-6-(4-fluorophenyl)-6-(2-(pyrrolidin-1-yl)ethyl)-1,3-oxazinan-2-one] was tested, and the IC50 was < 100 nM and the inhibition at 0.1 µM [1] was 50.3%.

For C[C@@H](c1ccc(Br)cc1)N1CC[C@](CCN2CC[C@H](F)C2)(c2ccc(F)cc2)OC1=O [EXAMPLE 377, (R)-3-((S)-1-(4-bromophenyl)ethyl)-6-(4-fluorophenyl)-6-(2-((S)-3-fluoropyrrolidin-1-yl)ethyl)-1,3-oxazinan-2-one], the IC50 was < 100 nM and the inhibition at 0.1 µM [1] was 72%.

C[C@@H](c1ccc(Br)cc1)N1CC[C@](CCN2CC[C@@H](F)C2)(c2ccc(F)cc2)OC1=O [EXAMPLE 378, (R)-3-((S)-1-(4-bromophenyl)ethyl)-6-(4-fluorophenyl)-6-(2-((R)-3-fluoropyrrolidin-1-yl)ethyl)-1,3-oxazinan-2-one] was tested, and the IC50 was < 100 nM and the inhibition at 0.1 µM [1] was 70%.

With C[C@@H](c1ccc(Br)cc1)N1CC[C@](CCN2CCNC(=O)C2)(c2ccc(F)cc2)OC1=O [EXAMPLE 379, (R)-3-((S)-1-(4-bromophenyl)ethyl)-6-(4-fluorophenyl)-6-(2-(3-oxopiperazin-1-yl)ethyl)-1,3-oxazinan-2-one] the IC50 was < 100 nM and the inhibition at 0.1 µM [1] was 57.7%.

With C[C@@H](c1ccc(Cl)cc1)N1CC[C@](CCO)(c2ccc(F)cc2)OC1=O [EXAMPLE 380, (S)-3-((S)-1-(4-chlorophenyl)ethyl)-6-(4-fluorophenyl)-6-(2-hydroxyethyl)-1,3-oxazinan-2-one] the IC50 was < 100 nM and the inhibition at 0.1 µM [1] was 97.2%.

For C[C@@H](c1ccc(Cl)cc1)N1CC[C@](CC(C)(C)O)(c2ccc(F)cc2)OC1=O [EXAMPLE 381, (S)-3-((S)-1-(4-chlorophenyl)ethyl)-6-(4-fluorophenyl)-6-(2-hydroxy-2-methylpropyl)-1,3-oxazinan-2-one], the IC50 was < 100 nM and the inhibition at 0.1 µM [1] was 97.2%.

With C[C@@H](c1ccc(Cl)cc1)N1CC[C@](CCC(C)(C)O)(c2ccc(F)cc2)OC1=O [EXAMPLE 382, (R)-3-((S)-1-(4-chlorophenyl)ethyl)-6-(4-fluorophenyl)-6-(3-hydroxy-3-methylbutyl)-1,3-oxazinan-2-one] the IC50 was < 100 nM and the inhibition at 0.1 µM [1] was 81.3%.

C[C@@H](c1ccc(Cl)cc1)N1CC[C@](CCCNS(C)(=O)=O)(c2ccc(F)cc2)OC1=O [EXAMPLE 384, N-(3-((R)-3-((S)-1-(4-chlorophenyl)ethyl)-6-(4-fluorophenyl)-2-oxo-1,3-oxazinan-6-yl)propyl)methanesulfonamide] was tested, and the IC50 was < 100 nM and the inhibition at 0.1 µM [1] was 89.2%.

NC(=O)c1ccc(-c2ccccc2CN2CCC(CCCO)(c3ccc(F)cc3)OC2=O)cc1 (centres unmarked) [EXAMPLE 386, 2′((6-(4-fluorophenyl)-6-(3-hydroxypropyl)-2-oxo-1,3-oxazinan-3-yl)methyl)biphenyl-4-carboxamide] was tested, and the IC50 was < 100 nM and the inhibition at 0.1 µM [1] was 52.5%.

With C[C@@H](c1ccc(C(F)(F)F)cc1)N1CC[C@](CCO)(c2ccc(F)cc2)OC1=O [EXAMPLE 387, (S)-6-(4-fluorophenyl)-6-(2-hydroxyethyl)-3-((S)-1-(4-(trifluoromethyl)phenyl)ethyl)-1,3-oxazinan-2-one] the IC50 was < 100 nM and the inhibition at 0.1 µM [1] was 95.8%.

In the case of C[C@@H](c1ccc(C(F)(F)F)cc1)N1CC[C@](CCCNS(C)(=O)=O)(c2ccc(F)cc2)OC1=O [EXAMPLE 389, N-(3-((R)-6-(4-fluorophenyl)-2-oxo-3-((S)-1-(4-(trifluoromethyl)phenyl)ethyl)-1,3-oxazinan-6-yl)propyl)methanesulfonamide], the IC50 is reported as < 100 nM and the inhibition at 0.1 µM [1] is reported as 96.4%.

For C[C@@H](c1ccc(C(F)(F)F)cc1)N1CC[C@](CC(C)(C)O)(c2ccc(F)cc2)OC1=O [EXAMPLE 390, (S)-6-(4-fluorophenyl)-6-(2-hydroxy-2-methylpropyl)-3-((S)-1-(4-(trifluoromethyl)phenyl)ethyl)-1,3-oxazinan-2-one], the IC50 was < 100 nM and the inhibition at 0.1 µM [1] was 96.3%.

C[C@@H](c1ccc(Br)cc1)N1CC[C@](CCCO)(c2ccccc2)OC1=O [EXAMPLE 392, (R)-3-((S)-1-(4-bromophenyl)ethyl)-6-(3-hydroxypropyl)-6-phenyl-1,3-oxazinan-2-one] was tested, and the IC50 was < 100 nM.

For C[C@@H](c1ccc(Br)cc1)N1CC[C@](CCCNS(C)(=O)=O)(c2ccccc2)OC1=O [EXAMPLE 394, N-(3-((R)-3-((S)-1-(4-bromophenyl)ethyl)-2-oxo-6-phenyl-1,3-oxazinan-6-yl)propyl)methanesulfonamide], the IC50 was < 100 nM and the inhibition at 0.1 µM [1] was 99.1%.

C[C@@H](c1ccc(Br)cc1)N1CC[C@](CCO)(c2ccccc2)OC1=O [EXAMPLE 396, (S)-3-((S)-1-(4-bromophenyl)ethyl)-6-(2-hydroxyethyl)-6-phenyl-1,3-oxazinan-2-one] was tested, and the IC50 was < 100 nM.

C[C@@H](c1ccc(Br)cc1)N1CC[C@](CCN2CCOCC2)(c2ccccc2)OC1=O [EXAMPLE 397, (R)-3-((S)-1-(4-bromophenyl)ethyl)-6-(2-morpholinoethyl)-6-phenyl-1,3-oxazinan-2-one] was tested, and the IC50 was < 100 nM and the inhibition at 0.1 µM [1] was 94.7%.
